Tests used:
IL-8 mRNA = experiment: Inhibition of IL-1β stimulated IL-8 gene expression in Caco-2 cells (Northern blot); type: cell-based
Procedure: Caco-2 cells (American Type Culture Collection, Rockville, Maryland) were plated at a density of 4×10^4 cells per cm^2 in 10 cm dishes containing Dulbecco's modified Eagle's medium (DMEM) with 10% fetal bovine serum and penicillin/streptomycin as described by Wu et al., J. Biol. Chem., 1992, 267:7863-7870 and Traber et al., Mol. Cell. Biol., 1992, 12:3614-3627. At days 5 (pre-confluent state) and 18 (post-confluent state) the cells were stimulated with complete medium containing 5 ng/ml of IL-1β (R and D Systems, Minneapolis, MN). Total RNA was isolated from these cells 2 and 4 hours after the addition of IL-1 containing medium as well as from a control cell population not treated with IL-1β in accordance with procedures described by Chomczynski, P. and Sacchi, N., Anal. Biochem., 1987, 162:156-159. Ten micrograms of RNA for each sample was electrophoretically separated, transferred to a nylon membrane, and UV crosslinked in accordance with procedures described by Traber et al., Am. J. Physiol., 1992, 262:G123-G130. A cDNA probe for IL-8 was prepared by RT-PCR of total RNA from Caco-2 cells stimulated with IL-1 for 2 hours. Random hexamers were used for reverse transcription of the RNA using reaction conditions similar to those described by Wu et al., Gastroenterology, 1993, 105:837-844. A 277 bp cDNA was amplified from the RT reaction by PCR using the 5′ primer IL-8(+103) and the 3′ primer IL-8(EX4), cloned using a TA-vector (Marchuk et al., Nuc. Acids Res., 1991, 19:1154), and labeled with ^32p using a Random Primers DNA labeling System (Gibco BRL, Gaithersburg, Md.). Hybridization of the Northern blots were performed using conditions as described by Huang et al., Mol. Endo., 1993, 7:1391-1398.

Caco-2 cells [1] = settings: concentrations of 10-8 and 10-9; cited from earlier work
[2] = tested on: murine erythroleukemia cells; settings: in vitro; cited from earlier work
[3] = tested on: alkaline phosphatase mRNA; experiment: Induction of alkaline phosphatase mRNA, marker for intestinal epithelial cell differentiation, in Caco-2 cells; type: cell-based
Caco-2 cells [4] = experiment: Caco-2 cell toxicity / cell death during treatment with differentiating agents
cell proliferation = settings: same dose; cited from earlier work
[5] = orally or intraperitoneally, 26.5 mmole/kg; cited from earlier work
[6] = e.g. six premature infants fed butyrates for 4 days at about 20 mmol/kg/day; cited from earlier work

For `C=C1/C(=C\C=C2/CCC[C@]3(C)[C@@H]([C@H](C)CCCC(C)(C)O)CC[C@@H]23)C[C@@H](O)C[C@@H]1O` [1,25-(OH)2D3, 1,25-dihydroxyvitamin D3], the “steady state IL-8 mRNA expression” value (IL-8 mRNA; concentrations of 10-8 and 10-9, IL-1β 5 ng/ml for 2 hours) is listed as “decrease”, the Caco-2 cell proliferation (Caco-2 cells [1]) is listed as “inhibit” and the “markers of intestinal epithelial differentiation” value (Caco-2 cells [1]) is listed as “induce”.

For `CCCC(=O)O` [butyric acid], the “erythroid differentiation of erythroleukemia” value (“erythroid differentiation” below) [2] is listed as “induced”.

For `CCCC(=O)OCC(O)CO` (centres unmarked) [monobutyrin], the “erythroid differentiation” value [2] is given as “induced” and the “potency relative to butyric acid on a molar basis” value [2] is given as “much less potent”.

For `CCCC(=O)[O-].[Na+]` [sodium butyrate], the “concentration of maximal inhibition of IL-8 mRNA expression” value (IL-8 mRNA; Caco-2 cells, IL-1β 5 ng/ml for 2 hours) was 2.5 mM, the “steady state levels of IL-8 mRNA” value (IL-8 mRNA; sodium butyrate 0.1 to 2.5 mM, 3 days, IL-1β 5 ng/ml for 2 hours) was “dose dependent reduction” and the “expression of IL-8 mRNA” value (IL-8 mRNA; sodium butyrate at concentrations higher than 2.5 mM) was “increased expression”. The “mRNA for alkaline phosphatase” value ([3]; sodium butyrate 2.5 mM) was “induction”, the “concentration causing significant toxicity and cell death” value (Caco-2 cells [4]; Caco-2 cells) was “higher than 2.5 mM” and the “tolerance by Caco-2 cells / cell death” value (Caco-2 cells [4]; sodium butyrate 0.1 to 2.5 mM) was “well-tolerated by Caco-2 cells without any evidence of cell death”.

With `CCC(=O)[O-].[Na+]` [sodium propionate] the “IL-8 mRNA expression” value (IL-8 mRNA; sodium propionate 0.1 to 20 mM, IL-1β 5 ng/ml for 2 hours) was “inhibited IL-8 mRNA expression in a dose dependent fashion”, the “alkaline phosphatase mRNA expression” value ([3]; sodium propionate 0.1 to 20 mM) was “induction” and the “cell toxicity or death” value (Caco-2 cells [4]; maximum concentration studied, 20 mM) was “did not lead to cell toxicity or death”.

For `CCCC(=O)OCC(COC(=O)CCC)OC(=O)CCC` [tributyrin], the “concentration giving identical biological response, relative to sodium butyrate” value (IL-8 mRNA; in vitro, differentiation and inhibition of IL-8 gene expression) is listed as “one third”, the “effectiveness in inhibiting cell proliferation relative to sodium butyrate” value (cell proliferation) is listed as “only as effective as sodium butyrate” and the “erythroid differentiation” value [2] is listed as “induced”. For the same compound, the “potency relative to butyric acid on a molar basis” value [2] was 3- to 4 fold, the toxicity in mice [5] was “No toxicity” and the tolerability in humans [6] was “well tolerated”.

With phenylacetate the “IL-8 mRNA expression” value (IL-8 mRNA; phenylacetate 2.5 to 10 mM, IL-1β 5 ng/ml for 2 hours) was “Dose dependent inhibition” and the Caco-2 cell toxicity (Caco-2 cells [4]; any concentration of phenylacetate studied (2.5 to 10 mM)) was “no evidence of Caco-2 cell toxicity”.

— patent publication US20020137780A1, “Differentiating agents for the treatment of inflammatory intestinal diseases” (priority 1995, published 2002)
